Measurements from patent EP0726263A2, “Herbicidal (1,3,4)oxadiazoles and thiadiazoles” (American Cyanamid Company, priority 1995, dated 1996).

How the values were obtained:
Format in all cases: in vivo
Matricaria inodora [1] = experiment: Herbicidal activity, preemergence test; conditions: pre; sprayed onto soil, 800 g of active material per hectare; evaluated 3 weeks after treatment
Procedure: (§1) To evaluate their herbicidal activity, compounds according to the invention are tested using a representative range of plants: TRZAW Triticum aestivum HORVW Hordeum vulgare ZEAMX Zea mays GOSHI Gossypium hirsutum HELAN Helianthus annuus GLYMA Glycine max ALOMY Alopecurus myosuroides SETVI Setaria viridis ECHCG Echinochloa crus-galli GALAP Galium aparine STEME Stellaria media VERPE Veronica persica VIOAR Viola arvensis IPOHE Ipomoea hederacea LAMPU Lamium purpureum PAPRH Papaver rhoeas MATIN Matricaria inodora AMARE Amaranthus retroflexus ABUTH Abutilon theophrasti AMBEL Ambrosia artemisifolia CHEAL Chenopodium album
(§2) The tests fall into two categories, preemergence and postemergence. The preemergence tests involve spraying a liquid formulation of the compound onto the soil in which the seeds have recently been sown. The postemergence tests involve spraying a liquid formulation of the compound onto seedling plants.
(§3) The soil used in the tests is a prepared horticultural loam.
(§4) The formulations used in the tests are prepared from solutions of the test compounds in acetone containing 0.4% by weight of an alkylphenol/ethylene oxide condensate available under the trade mark TRITON X-155. These acetone solutions are diluted with water and the resulting formulations applied at dosage levels corresponding to 800 g of active material per hectare in a volume equivalent to 900 litres per hectare.
(§5) In the preemergence tests untreated sown soil and in the postemergence tests untreated soil bearing seedling plants are used as controls.
(§6) Results of herbicide evaluation are expressed on a rating scale (0-9). The scale is based upon a visual observation of plant stand, vigor, malformation, size, chlorosis, and general plant appearance as compared to a control. Preemergence and postemergence treatments are evaluated at 3 and 2 weeks after treatment, respectively.

Veronica persica [2] = experiment: Herbicidal activity, preemergence test; conditions: pre; sprayed onto soil, 800 g of active material per hectare; evaluated 3 weeks after treatment
Procedure: as §1, §2, §3, §4, §5, §6

Galium aparine [3] = experiment: Herbicidal activity, preemergence test; conditions: pre; sprayed onto soil, 800 g of active material per hectare; evaluated 3 weeks after treatment
Procedure: as §1, §2, §3, §4, §5, §6

Triticum aestivum [4] = experiment: Herbicidal activity, preemergence test; conditions: pre; sprayed onto soil, 800 g of active material per hectare; evaluated 3 weeks after treatment
Procedure: as §1, §2, §3, §4, §5, §6

Alopecurus myosuroides [5] = experiment: Herbicidal activity, preemergence test; conditions: pre; sprayed onto soil, 800 g of active material per hectare; evaluated 3 weeks after treatment
Procedure: as §1, §2, §3, §4, §5, §6

Abutilon theophrasti [6] = experiment: Herbicidal activity, preemergence test; conditions: pre; sprayed onto soil, 800 g of active material per hectare; evaluated 3 weeks after treatment
Procedure: as §1, §2, §3, §4, §5, §6

Chenopodium album [7] = experiment: Herbicidal activity, preemergence test; conditions: pre; sprayed onto soil, 800 g of active material per hectare; evaluated 3 weeks after treatment
Procedure: as §1, §2, §3, §4, §5, §6

Hordeum vulgare [8] = experiment: Herbicidal activity, preemergence test; conditions: pre; sprayed onto soil, 800 g of active material per hectare; evaluated 3 weeks after treatment
Procedure: as §1, §2, §3, §4, §5, §6

Papaver rhoeas [9] = experiment: Herbicidal activity, preemergence test; conditions: pre; sprayed onto soil, 800 g of active material per hectare; evaluated 3 weeks after treatment
Procedure: as §1, §2, §3, §4, §5, §6

Setaria viridis [10] = experiment: Herbicidal activity, preemergence test; conditions: pre; sprayed onto soil, 800 g of active material per hectare; evaluated 3 weeks after treatment
Procedure: as §1, §2, §3, §4, §5, §6

Stellaria media [11] = experiment: Herbicidal activity, preemergence test; conditions: pre; sprayed onto soil, 800 g of active material per hectare; evaluated 3 weeks after treatment
Procedure: as §1, §2, §3, §4, §5, §6

Amaranthus retroflexus [12] = experiment: Herbicidal activity, preemergence test; conditions: pre; sprayed onto soil, 800 g of active material per hectare; evaluated 3 weeks after treatment
Procedure: as §1, §2, §3, §4, §5, §6

Lamium purpureum [13] = experiment: Herbicidal activity, preemergence test; conditions: pre; sprayed onto soil, 800 g of active material per hectare; evaluated 3 weeks after treatment
Procedure: as §1, §2, §3, §4, §5, §6

Ambrosia artemisifolia [14] = experiment: Herbicidal activity, preemergence test; conditions: pre; sprayed onto soil, 800 g of active material per hectare; evaluated 3 weeks after treatment
Procedure: as §1, §2, §3, §4, §5, §6

Glycine max [15] = experiment: Herbicidal activity, preemergence test; conditions: pre; sprayed onto soil, 800 g of active material per hectare; evaluated 3 weeks after treatment
Procedure: as §1, §2, §3, §4, §5, §6

Gossypium hirsutum [16] = experiment: Herbicidal activity, preemergence test; conditions: pre; sprayed onto soil, 800 g of active material per hectare; evaluated 3 weeks after treatment
Procedure: as §1, §2, §3, §4, §5, §6

Ipomoea hederacea [17] = experiment: Herbicidal activity, preemergence test; conditions: pre; sprayed onto soil, 800 g of active material per hectare; evaluated 3 weeks after treatment
Procedure: as §1, §2, §3, §4, §5, §6

Zea mays [18] = experiment: Herbicidal activity, preemergence test; conditions: pre; sprayed onto soil, 800 g of active material per hectare; evaluated 3 weeks after treatment
Procedure: as §1, §2, §3, §4, §5, §6

Matricaria inodora [19] = experiment: Herbicidal activity, postemergence test; conditions: post; sprayed onto seedling plants, 800 g of active material per hectare; evaluated 2 weeks after treatment
Procedure: as §1, §2, §3, §4, §5, §6

Veronica persica [20] = experiment: Herbicidal activity, postemergence test; conditions: post; sprayed onto seedling plants, 800 g of active material per hectare; evaluated 2 weeks after treatment
Procedure: as §1, §2, §3, §4, §5, §6

Galium aparine [21] = experiment: Herbicidal activity, postemergence test; conditions: post; sprayed onto seedling plants, 800 g of active material per hectare; evaluated 2 weeks after treatment
Procedure: as §1, §2, §3, §4, §5, §6

Triticum aestivum [22] = experiment: Herbicidal activity, postemergence test; conditions: post; sprayed onto seedling plants, 800 g of active material per hectare; evaluated 2 weeks after treatment
Procedure: as §1, §2, §3, §4, §5, §6

Alopecurus myosuroides [23] = experiment: Herbicidal activity, postemergence test; conditions: post; sprayed onto seedling plants, 800 g of active material per hectare; evaluated 2 weeks after treatment
Procedure: as §1, §2, §3, §4, §5, §6

Abutilon theophrasti [24] = experiment: Herbicidal activity, postemergence test; conditions: post; sprayed onto seedling plants, 800 g of active material per hectare; evaluated 2 weeks after treatment
Procedure: as §1, §2, §3, §4, §5, §6

Chenopodium album [25] = experiment: Herbicidal activity, postemergence test; conditions: post; sprayed onto seedling plants, 800 g of active material per hectare; evaluated 2 weeks after treatment
Procedure: as §1, §2, §3, §4, §5, §6

Hordeum vulgare [26] = experiment: Herbicidal activity, postemergence test; conditions: post; sprayed onto seedling plants, 800 g of active material per hectare; evaluated 2 weeks after treatment
Procedure: as §1, §2, §3, §4, §5, §6

Papaver rhoeas [27] = experiment: Herbicidal activity, postemergence test; conditions: post; sprayed onto seedling plants, 800 g of active material per hectare; evaluated 2 weeks after treatment
Procedure: as §1, §2, §3, §4, §5, §6

Setaria viridis [28] = experiment: Herbicidal activity, postemergence test; conditions: post; sprayed onto seedling plants, 800 g of active material per hectare; evaluated 2 weeks after treatment
Procedure: as §1, §2, §3, §4, §5, §6

Stellaria media [29] = experiment: Herbicidal activity, postemergence test; conditions: post; sprayed onto seedling plants, 800 g of active material per hectare; evaluated 2 weeks after treatment
Procedure: as §1, §2, §3, §4, §5, §6

Amaranthus retroflexus [30] = experiment: Herbicidal activity, postemergence test; conditions: post; sprayed onto seedling plants, 800 g of active material per hectare; evaluated 2 weeks after treatment
Procedure: as §1, §2, §3, §4, §5, §6

Lamium purpureum [31] = experiment: Herbicidal activity, postemergence test; conditions: post; sprayed onto seedling plants, 800 g of active material per hectare; evaluated 2 weeks after treatment
Procedure: as §1, §2, §3, §4, §5, §6

Ambrosia artemisifolia [32] = experiment: Herbicidal activity, postemergence test; conditions: post; sprayed onto seedling plants, 800 g of active material per hectare; evaluated 2 weeks after treatment
Procedure: as §1, §2, §3, §4, §5, §6

Glycine max [33] = experiment: Herbicidal activity, postemergence test; conditions: post; sprayed onto seedling plants, 800 g of active material per hectare; evaluated 2 weeks after treatment
Procedure: as §1, §2, §3, §4, §5, §6

Gossypium hirsutum [34] = experiment: Herbicidal activity, postemergence test; conditions: post; sprayed onto seedling plants, 800 g of active material per hectare; evaluated 2 weeks after treatment
Procedure: as §1, §2, §3, §4, §5, §6

Ipomoea hederacea [35] = experiment: Herbicidal activity, postemergence test; conditions: post; sprayed onto seedling plants, 800 g of active material per hectare; evaluated 2 weeks after treatment
Procedure: as §1, §2, §3, §4, §5, §6

Zea mays [36] = experiment: Herbicidal activity, postemergence test; conditions: post; sprayed onto seedling plants, 800 g of active material per hectare; evaluated 2 weeks after treatment
Procedure: as §1, §2, §3, §4, §5, §6

C[C@H](NC(=O)c1nnc(-c2ccc(C(C)(C)C)cc2)o1)c1ccccc1 [Example 16]
MATIN control rating (0-9) (Matricaria inodora [1]): 9 (complete kill)
VERPE control rating (0-9) (Veronica persica [2]): 9 (complete kill)
GALAP control rating (0-9) (Galium aparine [3]): 0 (no effect)
TRZAW control rating (0-9) (Triticum aestivum [4]): 0 (no effect)
ALOMY control rating (0-9) (Alopecurus myosuroides [5]): 0 (no effect)
ABUTH control rating (0-9) (Abutilon theophrasti [6]): 1 (trace effect)
CHEAL control rating (0-9) (Chenopodium album [7]): 7 (good herbicidal effect)
HORVW control rating (0-9) (Hordeum vulgare [8]): 0 (no effect)
PAPRH control rating (0-9) (Papaver rhoeas [9]): 9 (complete kill)
SETVI control rating (0-9) (Setaria viridis [10]): 8 (approaching complete kill)
STEME control rating (0-9) (Stellaria media [11]): 6 (herbicidal effect)
AMARE control rating (0-9) (Amaranthus retroflexus [12]): 9 (complete kill)
LAMPU control rating (0-9) (Lamium purpureum [13]): 8 (approaching complete kill)
AMBEL control rating (0-9) (Ambrosia artemisifolia [14]): 3 (moderate effect)
GLXMA control rating (0-9) (Glycine max [15]): 0 (no effect)
GOSHI control rating (0-9) (Gossypium hirsutum [16]): 0 (no effect)
IPOHE control rating (0-9) (Ipomoea hederacea [17]): 1 (trace effect)
ZEAMX control rating (0-9) (Zea mays [18]): 0 (no effect)
MATIN control rating (0-9) (Matricaria inodora [19]): 9 (complete kill)
VERPE control rating (0-9) (Veronica persica [20]): 9 (complete kill)
GALAP control rating (0-9) (Galium aparine [21]): 7 (good herbicidal effect)
TRZAW control rating (0-9) (Triticum aestivum [22]): 2 (slight effect)
ALOMY control rating (0-9) (Alopecurus myosuroides [23]): 3 (moderate effect)
ABUTH control rating (0-9) (Abutilon theophrasti [24]): 8 (approaching complete kill)
CHEAL control rating (0-9) (Chenopodium album [25]): 7 (good herbicidal effect)
HORVW control rating (0-9) (Hordeum vulgare [26]): 4 (injury)
PAPRH control rating (0-9) (Papaver rhoeas [27]): 7 (good herbicidal effect)
SETVI control rating (0-9) (Setaria viridis [28]): 9 (complete kill)
STEME control rating (0-9) (Stellaria media [29]): 9 (complete kill)
AMARE control rating (0-9) (Amaranthus retroflexus [30]): 9 (complete kill)
LAMPU control rating (0-9) (Lamium purpureum [31]): 9 (complete kill)
AMBEL control rating (0-9) (Ambrosia artemisifolia [32]): 8 (approaching complete kill)
GLXMA control rating (0-9) (Glycine max [33]): 4 (injury)
GOSHI control rating (0-9) (Gossypium hirsutum [34]): 9 (complete kill)
IPOHE control rating (0-9) (Ipomoea hederacea [35]): 8 (approaching complete kill)
ZEAMX control rating (0-9) (Zea mays [36]): 3 (moderate effect)
